Consider eight compounds from patent publication US20250084095A1, “Aminopyrimidine Derivatives as Cyclin-Dependent Kinase Inhibitors” (Accutar Biotechnology Inc., priority 2023, published 2025).

Assay [1] relates to 22RV1 cells. In words: Cell growth inhibition of 22RV1 cells (CellTiter-Glo). Format: cell-based. The conditions noted are these: Homo sapiens, 22Rv1, 120 h, 5 days, CellTiter-Glo, read-out: 22RV1 Cell Growh GI50. The procedure:
For cell growth assay, 22RV1 (ATCC, CRL-2505) cells were seeded in 96-well plates at 1000 cells/well in 90 μl of RPMI1640 growth medium containing 20% FBS and 1% Penicillin Streptomycin, and then incubated at 37° C. overnight. The following day, the test compound was administered to the cells by using 1000× compound stock solution prepared in DMSO at various concentrations. 1000× compound stock solution was first diluted in culturing medium to 10×, then 10 uL compound medium was added to each well in the cell plates. After administration of the compound, the cells were then incubated at 37° C. for 5 days. Upon completion, the plates were equilibrated at room temperature for approximately 10 min. 100 μl of CellTiter-Glo® Reagent (Promega) was added to each well. The plates were then incubated at room temperature for 10 min and luminescence was recorded by EnSpire plate reader (PerkinElmer).
22RV1 cells were obtained from American Type Culture Collection (ATCC, CRL-2505). 22RV1 cells were seeded in 96-well plates at 1000 cells/well in 90 μL of RPMI1640 growth medium containing 10% FBS and 1% Penicillin Streptomycin, and then incubated at 37° C. overnight. The following day, the test compound was administered to the cells by using 1000× compound stock solution prepared in DMSO at various concentrations. […], then 10 uL compound medium was added to each well in the cell plates. After administration of the compound, the cells were then incubated at […] for 5 days. Upon completion, the plates were equilibrated at room temperature for approximately 10 minutes. 100 μL of CellTiter-Glo® Reagent (Promega) was added to each well. The plates were then incubated at room temperature for 10 minutes and luminescence was recorded by EnSpire plate reader (PerkinElmer).

For assay [2], the system named is Phospho-Rb (Ser807/811) in MCF7 cells. In words: Phospho-Rb expression inhibition in MCF7 cells quantified by in cell Western. It counts as cell-based, human. The conditions noted are these: Homo sapiens, MCF7, 24 h, 24 hours, in cell Western, read-out: MCF7 pRb IC50. The procedure: MCF7 cells were obtained from American Type Culture Collection (ATCC, HTB-22). MCF7 cells were plated in 96-well plates (VWR #10062-900, or Coming #3904) in 90 μL culture medium at a density of 20,000 cells/well in the DMEM growth medium containing 10%/FBS and 1% Penicillin Streptomycin, and then incubated at 37° C. overnight. The following day, the test compound was administered to the cells by using 1000× compound stock solution prepared in DMSO at various concentrations. 1000× compound stock solution was first diluted in culturing medium to 10×, then 10 μL compound medium was added to each well in the cell plates. After administration of the compound, the cells were then incubated at 37° C. for 24 h. Upon completion, the cells were washed with PBS briefly. 150 μL/well of 4% formaldehyde was added and the plates were incubated at room temperature for 20 min. The cells were washed with PBS briefly, and permeabilized with 150 µL/well of ice cold 100% methanol for 10 min. The cells were washed with PBS briefly and blocked with 100 µL/well LI-COR blocking buffer for 1 h at room temperature with gentle shaking. The cells were incubated overnight at 4° C. with 50 μL primary antibody rabbit anti-Phospho-Rb (Ser807/811) (1: 500, Cell Signaling, #8516) and anti-Rb (1:200, Santa Cruz, sc-73598) diluted in Intercept Blocking Buffer (LI-COR, #927-60001) containing 0.1% Tween 20. The next day, the cells were washed with 200 μL PBS containing 0.1% Tween 20, 5×5 mins at room temperature with gentle shaking, and incubated with 50 μL secondary antibody, IRDye® 800CW Goat anti-Rabbit IgG (1:1000, LI-COR, #926-32211) and FRDye® 680RD Goat anti-Mouse IgG (1:1000, LI-COR, #926-68070), in LI-COR […] blocking buffer with 0.2% Tween 20 for 1 h at room temperature with gentle shaking. The cells were washed with 200 μL PBS containing 0.1% Tween 20, 5×5 min at room temperature with gentle shaking. The cells were washed with PBS for 5 mins. 100 μL fresh PBS was added to each well and the plates were imaged on a LI-COR Odyssey CLX plate reader.
MCF7 cells were obtained from American Type Culture Collection (ATCC, HTB-22). SW1573-CDK6 KO and SW1573-CDK4 KO cells were generated by the CRISPR-Cas9 technology. All cells were plated in 96-well plates (VWR #10062-900, or Corning #3904) in 90 uL culture medium at a density of 20,000 cells/well in the respective growth medium containing 10% FBS and 1% Penicillin Streptomycin, and then incubated at 37° C. overnight. The following day, the test compound was administered to the cells by using 1000× compound stock solution prepared in DMSO at various concentrations. 1000× compound stock solution was first diluted in culturing medium to 10×, then 10 uL compound medium was added to each well in the cell plates. After administration of the compound, the cells were then incubated at 37° C. for 24 hours. Upon completion, the cells were washed with PBS briefly. 150 uL/well of 4% formaldehyde was added and the plates were incubated at room temperature for 20 mins. The cells were washed with PBS briefly, and permeabilized with 150 uL/well of ice cold 100% methanol for 10 mins. The cells were washed with PBS briefly and blocked with 100 uL/well LI-COR blocking buffer for 1 hr at room temperature with gentle shaking. The cells were incubated overnight at 4° C. with 50 uL primary antibody rabbit anti-Phospho-Rb (Ser807/811) (1: 500, Cell Signaling, #8516) and anti-Rb (1:200, Santa Cruz, sc-73598) diluted in Intercept Blocking Buffer (LI-COR, #927-60001) containing 0.1% Tween 20. The next day, the cells were washed with 200 uL PBS containing 0.1% Tween 20, 5×5 mins at room temperature with gentle shaking, and incubated with 50 uL secondary antibody, IRDye® 800CW Goat anti-Rabbit IgG (1:1000, LI-COR, #926-32211) and IRDye®680RD Goat anti-Mouse IgG (1:1000, LI-COR, #926-68070), in LI-COR blocking buffer with 0.2% Tween 20 for 1 hr at room temperature with gentle shaking. […]

Take `CC(C)n1c(C(F)(F)CO)nc2c(F)cc(-c3nc(N[C@@H]4C[C@H]5CO[C@H](O5)[C@H]4O)ncc3Cl)cc21` [Compound 176, (1S,3R,4S,5R)-3-((5-chloro-4-(2-(1,1-difluoro-2-hydroxyethyl)-4-fluoro-1-isopropyl-1H-benzo[d]imidazol-6-yl)pyrimidin-2-yl)amino)-6,8-dioxabicyclo[3.2.1]octan-4-ol]: the GI50 in assay [1] is 450 to 3000 nM. In assay [2], the half-inhibitory concentration (IC50) was 150 to 1000 nM.
The like results for `CC(C)(O)c1nc2c(F)cc(-c3nc(N[C@@H]4C[C@H]5CO[C@H](O5)[C@H]4O)ncc3Cl)cc2n1C12CC(C1)C2` [Compound 181, (1S,3R,4S,5R)-3-((4-(1-(bicyclo[1.1.1]pentan-1-yl)-4-fluoro-2-(2-hydroxypropan-2-yl)-1H-benzo[d]imidazol-6-yl)-5-chloropyrimidin-2-yl)amino)-6,8-dioxabicyclo[3.2.1]octan-4-ol] were, in that order, 120 to 450 nM and 150 to 1000 nM.
For the compound `Cc1nc2c(F)cc(-c3nc(N[C@@H]4C[C@H]5CO[C@H](O5)[C@H]4O)ncc3Cl)cc2n1[C@@H]1CCC[C@@]1(C)O` [Compound 182, (1S,3R,4S,5R)-3-((5-chloro-4-(4-fluoro-1-((1R,2R)-2-hydroxy-2-methylcyclopentyl)-2-methyl-1H-benzo[d]imidazol-6-yl)pyrimidin-2-yl)amino)-6,8-dioxabicyclo[3.2.1]octan-4-ol], in assay [1], the GI50 was in the range of 120 to 450 nM. The 50% inhibitory concentration (IC50) in assay [2] is 150 to 1000 nM.
Turning to `CN(C)C(=O)c1cc2c(F)cc(-c3nc(N[C@@H]4C[C@H]5CO[C@H](O5)[C@H]4O)ncc3Cl)cc2n1C1CCCC1` [Compound 183, 6-(5-chloro-2-(((1S,3R,4S,5R)-4-hydroxy-6,8-dioxabicyclo[3.2.1]octan-3-yl)amino)pyrimidin-4-yl)-1-cyclopentyl-4-fluoro-N,N-dimethyl-1H-indole-2-carboxamide], the concentration for 50% growth inhibition (GI50) in assay [1] was over 3000 nM. The half-maximal inhibitory concentration (IC50) in assay [2] is over 1000 nM.
Turning to `CC(C)n1c([C@@H]2COC(=O)N2)nc2c(F)cc(-c3nc(N[C@@H]4C[C@H]5CO[C@H](O5)[C@H]4O)ncc3Cl)cc21` [Compound 184, (R)-4-(6-(5-chloro-2-(((1S,3R,4S,5R)-4-hydroxy-6,8-dioxabicyclo[3.2.1]octan-3-yl)amino)pyrimidin-4-yl)-4-fluoro-1-isopropyl-1H-benzo[d]imidazol-2-yl)oxazolidin-2-one], the GI50 in assay [1] was in the range of 120 to 450 nM. For the same compound, the IC50 in assay [2] was 150 to 1000 nM.
The like results for `CC(C)n1c([C@@H]2COC(=O)N2C)nc2c(F)cc(-c3nc(N[C@@H]4C[C@H]5CO[C@H](O5)[C@H]4O)ncc3Cl)cc21` [Compound 185, (R)-4-(6-(5-chloro-2-(((1S,3R,4S,5R)-4-hydroxy-6,8-dioxabicyclo[3.2.1]octan-3-yl)amino)pyrimidin-4-yl)-4-fluoro-1-isopropyl-1H-benzo[d]imidazol-2-yl)-3-methyloxazolidin-2-one] were, in that order, 450 to 3000 nM and 150 to 1000 nM.
As for `CC(C)n1c(-c2cn[nH]c2)nc2c(F)cc(-c3nc(N[C@@H]4C[C@H]5CO[C@H](O5)[C@H]4O)ncc3Cl)cc21` [Compound 186, (1S,3R,4S,5R)-3-((5-chloro-4-(4-fluoro-1-isopropyl-2-(1H-pyrazol-4-yl)-1H-benzo[d]imidazol-6-yl)pyrimidin-2-yl)amino)-6,8-dioxabicyclo[3.2.1]octan-4-ol], in assay [1], the GI50 lay within 120 to 450 nM. Further, the IC50 in assay [2] was 150 to 1000 nM.
In the same order, the values of `CC(C)n1c(-c2cnn(C)c2)nc2c(F)cc(-c3nc(N[C@@H]4C[C@H]5CO[C@H](O5)[C@H]4O)ncc3Cl)cc21` [Compound 187, (1S,3R,4S,5R)-3-((5-chloro-4-(4-fluoro-1-isopropyl-2-(1-methyl-1H-pyrazol-4-yl)-1H-benzo[d]imidazol-6-yl)pyrimidin-2-yl)amino)-6,8-dioxabicyclo[3.2.1]octan-4-ol] are 120 to 450 nM and 150 to 1000 nM.
